Here are results for 14 compounds from ChEMBL document CHEMBL1201862, “PubChem BioAssay data set” (2004).

Calls of active or inactive are those of the source.

Some targets named below: Cytochrome P450 2C9 (Homo sapiens, UniProt P11712); Cytochrome P450 3A4 (Homo sapiens, UniProt P08684); Cytochrome P450 2D6 (Homo sapiens, UniProt P10635).
Another assay deals with Cytochrome P450 2C19 (Homo sapiens, UniProt P33261). Description: Cytochrome panel assay with activity outcomes. Panel member name: p450-cyp2c19 Compounds with AC50 equal or less than 10 uM are considered active. Conditions: read-out: AC50. In kind it is functional.
The target in a further assay is T1, Cytochrome P450 1A2 (Homo sapiens, UniProt P05177).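 Further: PubChem cytochrome P450 panel assay, CYP1A2 panel member.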
T1 sequence (P05177 whole entry): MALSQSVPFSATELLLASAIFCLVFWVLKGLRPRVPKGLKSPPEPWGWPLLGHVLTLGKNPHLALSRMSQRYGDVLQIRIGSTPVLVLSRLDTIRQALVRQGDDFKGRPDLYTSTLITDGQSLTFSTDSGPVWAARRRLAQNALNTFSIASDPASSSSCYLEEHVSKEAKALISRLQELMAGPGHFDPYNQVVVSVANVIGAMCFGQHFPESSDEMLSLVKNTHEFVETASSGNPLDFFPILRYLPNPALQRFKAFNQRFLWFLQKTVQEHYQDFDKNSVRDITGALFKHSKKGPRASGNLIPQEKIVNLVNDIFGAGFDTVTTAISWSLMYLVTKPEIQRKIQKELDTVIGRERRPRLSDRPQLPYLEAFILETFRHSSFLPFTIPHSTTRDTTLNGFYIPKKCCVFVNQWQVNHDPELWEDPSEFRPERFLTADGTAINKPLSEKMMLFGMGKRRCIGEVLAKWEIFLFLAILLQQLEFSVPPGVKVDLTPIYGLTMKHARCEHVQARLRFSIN

Another assay has as its system Vero. In words: cells. Format: functional. The following applies: Chlorocebus sabaeus.
Assay [1] can be described thus: NIH3T3 cell viability loss – ATP luminescence, mouse fibroblasts, counter-screen, dose response (AID 2010).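 Further: cells exposed to compound for about 90 hours before reading.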 Format: functional, cell-based.
Assay [2] in a line: Trypanosoma cruzi growth suppression in host cells – NIH3T3 host cells, beta-gal luminescence, confirmation (AID 2044).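 Further: intracellular parasites grown in NIH/3T3 mouse fibroblasts as host cells; luminescent beta-galactosidase reporter signal from transgenic T. cruzi replicating inside host cells; inhibitors lower the luminescence signal.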 Format: functional, cell-based.
A short description of assay [3]: Luminescence Cell-Based Dose Response HTS to Identify Activators of Luciferase Translation or Activity in H4 […] Cells. [Related pubchem assays: 1829 (Project Summary), 1814 (Primary HTS)]. In kind it is functional.
In a further assay the test system is H4. Description: Luminescence Cell-Based Dose Response HTS to Identify Activators of 5'UTR Stem-Loop Driven Prion Protein mRNA Translation in H4 Neuroglioblastoma Cells. [Related pubchem assays: 1829 (Project Summary), 1814 (Primary HTS)]. Format: functional. Conditions: Homo sapiens.
Another assay has as its system Streptococcus. Description: GAS UMAA2166 growth inhibition – luminescence, BacTiterGlo, counter-screen for streptokinase expression inhibitor project, dose response (AID 1915).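 Further: potency for reduction of bacterial viability or growth.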 In kind it is functional, organism-based.
Another assay has as its target T2, Streptokinase A (Streptococcus pyogenes serotype M1, UniProt P10520).
T2 sequence (P10520 whole entry): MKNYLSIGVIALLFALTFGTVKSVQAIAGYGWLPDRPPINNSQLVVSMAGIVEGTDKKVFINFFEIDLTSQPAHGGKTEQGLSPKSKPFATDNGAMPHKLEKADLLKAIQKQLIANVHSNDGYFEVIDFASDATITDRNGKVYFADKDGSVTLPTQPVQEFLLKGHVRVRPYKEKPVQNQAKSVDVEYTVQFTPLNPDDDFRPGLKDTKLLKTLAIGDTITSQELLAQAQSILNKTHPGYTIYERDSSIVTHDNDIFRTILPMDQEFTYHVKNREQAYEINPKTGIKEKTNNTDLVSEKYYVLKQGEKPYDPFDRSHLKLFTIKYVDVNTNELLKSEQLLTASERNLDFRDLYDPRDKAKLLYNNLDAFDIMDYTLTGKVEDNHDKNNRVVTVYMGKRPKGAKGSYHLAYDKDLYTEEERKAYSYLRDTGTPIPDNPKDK
Description: viability-normalized secreted streptokinase activity reduction – plasminogen activation absorbance, OD405, dose response (AID 1914).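 Further: secreted streptokinase activity via plasminogen activation per viability signal from cell pellet.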 Format: functional, Streptococcus pyogenes M1 GAS.

The test system of assay [4] is Streptococcus sp. 'group A'. In words: Streptococcus pyogenes SK(-)GAS viability under kanamycin – luminescence, BacTiterGlo, confirmation, counter-screen for streptokinase expression inhibitor project, dose response (AID 1900). Format: functional, organism-based.
A short description of assay [5]: Luminescence Cell-Based Dose Confirmation HTS to Identify Activators of 5'UTR Stem-Loop Driven Alpha-Synuclein mRNA Translation in H4 Neuroglioblastoma Cells. [Related pubchem assays: 1829 (Project Summary), 1814 (Primary HTS)]. Format: functional.
The nature of assay [6]: viability of uninfected HEp-2 cells – cell-based, HTS, cytotoxicity control for RSV inhibitor project, dose response (AID 2410). In kind it is functional. Conditions: human respiratory syncytial virus.
Assay [7] deals with T3, Heat shock factor protein 1 (Mus musculus, UniProt P38532).
T3 sequence (P38532 whole entry): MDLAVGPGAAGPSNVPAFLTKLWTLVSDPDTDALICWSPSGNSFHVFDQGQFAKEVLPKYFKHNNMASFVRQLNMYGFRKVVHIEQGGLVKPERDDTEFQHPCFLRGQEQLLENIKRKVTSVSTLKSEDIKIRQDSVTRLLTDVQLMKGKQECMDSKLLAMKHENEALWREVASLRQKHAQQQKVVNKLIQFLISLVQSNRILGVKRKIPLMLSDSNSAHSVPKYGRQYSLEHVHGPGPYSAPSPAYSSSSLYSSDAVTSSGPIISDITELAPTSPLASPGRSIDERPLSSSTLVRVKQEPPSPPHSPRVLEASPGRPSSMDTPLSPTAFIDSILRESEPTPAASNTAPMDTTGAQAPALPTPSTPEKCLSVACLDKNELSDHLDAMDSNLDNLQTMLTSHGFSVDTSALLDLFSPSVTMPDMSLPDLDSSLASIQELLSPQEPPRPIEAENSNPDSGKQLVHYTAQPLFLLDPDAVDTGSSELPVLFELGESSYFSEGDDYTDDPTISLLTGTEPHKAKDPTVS
Description: enhancement of HSF1-driven luciferase signal – cell-based, NIH3T3, luminescence, dose retest, confirmation (AID 435004).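 Further: stress induced by proteasome inhibitor MG132 added 30 min after compound; luciferase reporter driven by HSF1 response element in NIH3T3 cells; actives raise luminescence as potentiators of the MG132 stress response.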 In kind it is functional.

Assay [8] in a line: Luminescence Cell-Based Dose Retest to Confirm Inhibitors of Cancer Stem Cells. [Related pubchem assays (depositor defined):AID2717, AID2721]. In kind it is functional, Homo sapiens. The following applies: Homo sapiens.
A further assay concerns the target T4, Leucine aminopeptidase (Plasmodium falciparum 3D7, UniProt Q8IL11).
T4 sequence (Q8IL11 whole entry): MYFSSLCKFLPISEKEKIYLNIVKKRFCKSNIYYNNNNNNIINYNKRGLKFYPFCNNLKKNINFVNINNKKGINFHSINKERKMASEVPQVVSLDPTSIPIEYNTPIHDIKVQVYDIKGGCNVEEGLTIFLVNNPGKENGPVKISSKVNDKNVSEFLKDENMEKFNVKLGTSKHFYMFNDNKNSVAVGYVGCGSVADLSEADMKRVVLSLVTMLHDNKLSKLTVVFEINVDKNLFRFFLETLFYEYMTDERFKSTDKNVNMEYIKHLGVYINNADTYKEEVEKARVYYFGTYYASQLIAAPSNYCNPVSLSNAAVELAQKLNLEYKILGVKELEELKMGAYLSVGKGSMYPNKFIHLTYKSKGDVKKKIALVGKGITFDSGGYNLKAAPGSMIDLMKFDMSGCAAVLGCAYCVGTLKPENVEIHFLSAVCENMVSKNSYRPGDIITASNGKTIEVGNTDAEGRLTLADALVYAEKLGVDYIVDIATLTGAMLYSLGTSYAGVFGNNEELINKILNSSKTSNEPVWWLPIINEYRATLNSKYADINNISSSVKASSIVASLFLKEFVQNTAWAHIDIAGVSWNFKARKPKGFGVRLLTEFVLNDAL
Description: P. falciparum M17LAP inhibitors, primary screen, biochemical, fluorogenic H-Leu-NHMec substrate, 1536-well (AID 1619). Format: functional.

Chain of Cytochrome P450 2D6 (P10635 whole entry): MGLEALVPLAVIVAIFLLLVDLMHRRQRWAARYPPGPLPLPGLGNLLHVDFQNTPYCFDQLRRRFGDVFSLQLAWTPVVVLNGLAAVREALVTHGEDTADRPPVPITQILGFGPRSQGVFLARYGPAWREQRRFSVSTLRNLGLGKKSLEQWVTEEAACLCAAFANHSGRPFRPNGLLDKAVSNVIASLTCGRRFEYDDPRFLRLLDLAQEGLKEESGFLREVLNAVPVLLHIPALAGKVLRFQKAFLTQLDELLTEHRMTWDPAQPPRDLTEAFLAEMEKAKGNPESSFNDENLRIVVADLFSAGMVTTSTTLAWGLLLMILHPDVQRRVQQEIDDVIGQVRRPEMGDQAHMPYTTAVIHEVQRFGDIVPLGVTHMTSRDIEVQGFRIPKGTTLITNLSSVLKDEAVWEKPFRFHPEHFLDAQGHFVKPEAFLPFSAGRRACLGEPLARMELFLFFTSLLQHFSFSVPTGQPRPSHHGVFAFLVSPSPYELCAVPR
Chain of Cytochrome P450 2C9 (P11712 whole entry): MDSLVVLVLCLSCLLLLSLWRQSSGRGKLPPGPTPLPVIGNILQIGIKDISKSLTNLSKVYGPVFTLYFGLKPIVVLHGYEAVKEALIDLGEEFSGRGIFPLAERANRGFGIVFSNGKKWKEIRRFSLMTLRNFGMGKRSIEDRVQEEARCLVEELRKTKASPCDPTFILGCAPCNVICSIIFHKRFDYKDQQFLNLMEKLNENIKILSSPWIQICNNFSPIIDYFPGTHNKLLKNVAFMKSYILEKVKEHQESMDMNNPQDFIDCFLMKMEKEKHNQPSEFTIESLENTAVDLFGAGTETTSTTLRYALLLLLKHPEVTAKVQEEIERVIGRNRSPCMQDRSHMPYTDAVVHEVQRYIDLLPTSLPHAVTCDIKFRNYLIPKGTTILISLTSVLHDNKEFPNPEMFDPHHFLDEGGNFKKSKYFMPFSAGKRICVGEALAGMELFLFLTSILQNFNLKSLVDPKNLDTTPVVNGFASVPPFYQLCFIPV
Chain of Cytochrome P450 2C19 (P33261 whole entry): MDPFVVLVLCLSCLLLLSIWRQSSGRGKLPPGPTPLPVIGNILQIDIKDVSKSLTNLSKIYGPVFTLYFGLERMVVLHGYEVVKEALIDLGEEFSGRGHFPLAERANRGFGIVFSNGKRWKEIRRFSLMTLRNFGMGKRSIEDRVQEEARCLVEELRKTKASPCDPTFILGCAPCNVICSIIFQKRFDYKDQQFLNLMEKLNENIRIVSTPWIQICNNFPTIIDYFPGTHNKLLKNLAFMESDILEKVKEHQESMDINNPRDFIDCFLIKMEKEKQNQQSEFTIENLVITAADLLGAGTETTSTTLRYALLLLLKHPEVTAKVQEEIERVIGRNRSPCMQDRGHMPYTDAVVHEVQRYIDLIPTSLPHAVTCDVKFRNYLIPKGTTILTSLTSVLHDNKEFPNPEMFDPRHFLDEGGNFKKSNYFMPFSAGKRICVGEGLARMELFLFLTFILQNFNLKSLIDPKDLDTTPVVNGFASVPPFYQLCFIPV
Chain of Cytochrome P450 3A4 (P08684 whole entry): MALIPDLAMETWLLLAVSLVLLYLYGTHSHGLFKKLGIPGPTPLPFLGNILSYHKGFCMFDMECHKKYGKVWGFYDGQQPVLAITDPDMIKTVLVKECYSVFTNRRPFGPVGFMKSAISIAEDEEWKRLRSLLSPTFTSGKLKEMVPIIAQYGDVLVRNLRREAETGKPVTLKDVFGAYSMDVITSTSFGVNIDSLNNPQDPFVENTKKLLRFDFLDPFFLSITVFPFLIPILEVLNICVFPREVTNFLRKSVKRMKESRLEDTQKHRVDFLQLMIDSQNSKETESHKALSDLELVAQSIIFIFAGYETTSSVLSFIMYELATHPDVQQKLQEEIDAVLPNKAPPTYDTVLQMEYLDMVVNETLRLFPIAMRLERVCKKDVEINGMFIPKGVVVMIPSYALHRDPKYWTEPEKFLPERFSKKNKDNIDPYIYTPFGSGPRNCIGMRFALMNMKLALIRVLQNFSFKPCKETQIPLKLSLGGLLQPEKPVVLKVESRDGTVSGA

Take `Cc1cccc(C)c1NC(=O)CSc1nc(C)c(CC(=O)c2ccc(Br)cc2)c(C)c1C#N`: the AC50 at Cytochrome P450 2C9 was 1.12 µM (inconclusive); at Cytochrome P450 2C19, 35.5 µM (inconclusive).
Take `COc1ccc(C(=O)N/N=C2/C(=O)c3c(C)cc(C)cc3CC2(C)C)cc1`: the AC50 on Cytochrome P450 2C9 is 6.31 µM (inconclusive); at Cytochrome P450 1A2, 5.01 µM (inconclusive).
For `CCOC(=O)c1cnc(-n2nc(C)cc2C)nc1NCCO`, the half-maximal activity concentration (AC50) on Cytochrome P450 2C9 was 20 µM (inconclusive); at Cytochrome P450 3A4, 25.1 µM (inconclusive); at Cytochrome P450 1A2, 14.1 µM (inconclusive).
Take `CCc1nc(SCC(=O)N2CCCc3ccccc32)c2oc3ccccc3c2n1`: the AC50 at Cytochrome P450 2C9 was 4.47 µM (inconclusive); on Cytochrome P450 2D6, 20 µM (inconclusive).
As to `O=C1N(c2ccccc2C(F)(F)F)O[C@@]1(c1ccccc1)C1CCCC1`, in the assay with Vero, the CC50 was 21.6 µM (active).
`O=C(CCCn1c(=S)[nH]c2cc3c(cc2c1=O)OCO3)N1CCN(c2ccccc2)CC1`: the AC50 on Cytochrome P450 2C9 was 0.0891 µM (inconclusive); on Cytochrome P450 2D6, 1.26 µM (inconclusive); on Cytochrome P450 1A2, 4.47 µM (inconclusive).
With `COC(=O)c1[nH]c2cc(OC)ccc2c1NC(=O)c1nonc1C`, the AC50 at Cytochrome P450 2C9 was 1.26 µM (inconclusive); at Cytochrome P450 3A4, 7.08 µM (inconclusive); at Cytochrome P450 1A2, 0.794 µM (inconclusive).
On to `Cc1ccc2[nH]c(C3CCCN(C(S)=Nc4ccccc4C)C3)nc2c1` (stereo unspecified), for which the figures for the concentration at half-maximal activity (AC50) at Cytochrome P450 2C9 and on Cytochrome P450 2C19 were 3.16 µM (inconclusive) and 1.41 µM (inconclusive), respectively. Moreover, the half-maximal effective concentration (EC50) in assay [1] was > 60 µM (not active); in assay [2], 0.443 µM (active).
For `O=C(Nc1nnc(C2CCCCC2)s1)c1ccc(Br)s1`, the concentration for a half-maximal effect (EC50) is 65.3 µM (active) in assay [3]; 81.8 µM (active) in the assay with H4; > 150 µM (not active) with Streptococcus; > 150 µM (not active) on Streptokinase A; 6.45 µM (active) in assay [4]; 11.6 µM (active) in assay [5].
Turning to `C=C(C(=O)c1ccccc1)C(c1ccccc1)C(C)C(=O)c1ccccc1` (stereo unspecified), the CC50 with Vero was 17.8 µM (active).
Turning to `O=C(NCCN1CCN(Cc2ccccc2)CC1)C1CC(=O)N(C2CCCC2)C1` (stereo unspecified), the concentration at half-maximal activity (AC50) on Cytochrome P450 2C9 was 0.398 µM (inconclusive); on Cytochrome P450 2D6, 14.1 µM (inconclusive).
Turning to `O=C(O)/C=C\c1ccc(O)c(O)c1`, on Cytochrome P450 2C9, the half-maximal activity concentration (AC50) is 15.8 µM (inconclusive).
For `COc1ccc(C(=O)/C=C/c2ccc(OC)c(Cn3nnc4ccccc43)c2)cc1`, the half-maximal cytotoxic concentration (CC50) is 12.1 µM (active) in assay [6] and 15.2 µM (active) with Vero. The EC50 in [7] was 14.1 µM (active). Moreover, in assay [8], the half-maximal activity concentration (AC50) is 6.14 µM (active).
As for `O=C(COc1ccccc1)NNC(=S)NC(=O)c1ccccc1`, the half-maximal inhibitory concentration (IC50) at Leucine aminopeptidase was 9.22 µM (active). For the same compound, the CC50 with Vero was > 25 µM (active).
